Results: patent US8614327B2 (Vertex Pharmaceuticals Incorporated, priority 2004, dated 2013)

Target: T1, ΔF508-CFTR (Homo sapiens, UniProt P13569, DEL508-508)
T1 construct: expressed in transfected cells
Assay: Membrane potential optical (FRET/VIPR) assay, identification of potentiator compounds
Type: cell-based
Settings: Table 3, assay not given; for % Activity: relative efficacy
Summary of the method: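 Double-addition potentiator screen: compound delivered in gluconate-substituted Cl^--free medium, membrane potential followed via CC2-DMPE/DiSBAC2(3) FRET on VIPR. Cells were ΔF508-CFTR-expressing NIH3T3 mouse fibroblasts, held 2 h at 37° C. then 24 h at 27° C. before assay.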

T1 sequence (P13569 with tags, fused parts or gaps DEL508-508): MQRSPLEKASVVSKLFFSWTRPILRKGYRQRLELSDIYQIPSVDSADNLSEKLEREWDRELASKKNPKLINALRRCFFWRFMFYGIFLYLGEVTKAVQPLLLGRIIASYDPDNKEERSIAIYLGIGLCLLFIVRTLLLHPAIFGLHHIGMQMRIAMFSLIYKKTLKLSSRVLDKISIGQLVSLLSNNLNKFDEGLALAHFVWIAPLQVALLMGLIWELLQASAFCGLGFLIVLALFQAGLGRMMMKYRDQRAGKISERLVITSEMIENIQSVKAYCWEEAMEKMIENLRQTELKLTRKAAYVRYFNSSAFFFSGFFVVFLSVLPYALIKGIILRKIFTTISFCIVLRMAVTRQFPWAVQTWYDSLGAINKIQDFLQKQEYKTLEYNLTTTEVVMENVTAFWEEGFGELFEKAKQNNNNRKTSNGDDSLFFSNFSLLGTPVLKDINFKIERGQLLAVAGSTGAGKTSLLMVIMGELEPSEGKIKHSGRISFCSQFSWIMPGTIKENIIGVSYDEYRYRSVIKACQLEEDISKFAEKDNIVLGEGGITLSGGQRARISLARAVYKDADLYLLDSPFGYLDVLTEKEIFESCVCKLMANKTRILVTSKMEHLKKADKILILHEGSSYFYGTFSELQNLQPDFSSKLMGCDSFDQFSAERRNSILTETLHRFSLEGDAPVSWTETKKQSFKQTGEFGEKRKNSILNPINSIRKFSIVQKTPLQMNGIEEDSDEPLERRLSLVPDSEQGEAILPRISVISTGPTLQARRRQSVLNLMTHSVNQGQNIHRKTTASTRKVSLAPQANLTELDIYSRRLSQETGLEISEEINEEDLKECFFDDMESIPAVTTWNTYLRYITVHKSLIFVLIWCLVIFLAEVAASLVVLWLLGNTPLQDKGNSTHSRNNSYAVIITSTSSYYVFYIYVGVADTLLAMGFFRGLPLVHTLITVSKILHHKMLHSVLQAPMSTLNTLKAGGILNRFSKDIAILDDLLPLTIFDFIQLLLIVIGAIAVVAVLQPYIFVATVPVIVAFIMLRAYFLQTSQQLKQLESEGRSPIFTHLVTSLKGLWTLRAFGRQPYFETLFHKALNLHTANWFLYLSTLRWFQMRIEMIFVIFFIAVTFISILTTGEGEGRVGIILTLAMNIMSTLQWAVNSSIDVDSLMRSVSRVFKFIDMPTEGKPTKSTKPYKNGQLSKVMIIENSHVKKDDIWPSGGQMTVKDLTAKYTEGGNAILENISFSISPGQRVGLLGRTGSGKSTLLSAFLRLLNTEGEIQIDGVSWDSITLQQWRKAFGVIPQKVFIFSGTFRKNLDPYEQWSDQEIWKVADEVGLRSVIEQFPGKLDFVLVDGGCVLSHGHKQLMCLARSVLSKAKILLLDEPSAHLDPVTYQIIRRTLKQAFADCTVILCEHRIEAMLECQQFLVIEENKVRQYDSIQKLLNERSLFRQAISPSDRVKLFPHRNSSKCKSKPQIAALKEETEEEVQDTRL

Row | SMILES | EC50 [µM] | % Activity
1 | COc1ccc2[nH]cc(C(=O)Nc3ccc(N4[C@H](C)CC[C@H]4C)cc3C(F)(F)F)c(=O)c2c1 [Compound 685, N-(4-((2R,5R)-2,5-dimethylpyrrolidin-1-yl)-2-(trifluoromethyl)phenyl)-6-methoxy-4-oxo-1,4-dihydroquinoline-3-carboxamide] | < 10 | ++ (between 25% to 100%)
2 | CCOc1cc(NC(=O)c2c[nH]c3ccccc3c2=O)c(OCC)cc1NC(=O)c1ccccc1 [Compound 7, N-(4-benzoylamino-2,5-diethoxy-phenyl)-4-oxo-1H-quinoline-3-carboxamide] | 25 to 60 | + (<25%)
3 | O=C(Nc1cc(Cl)ccc1F)c1c[nH]c2ccccc2c1=O [Compound 48, N-(5-chloro-2-fluoro-phenyl)-4-oxo-1H-quinoline-3-carboxamide] | < 10 | ++ (between 25% to 100%)
4 | CC(C)(C)OC(=O)NCc1cc(NC(=O)c2c[nH]c3ccccc3c2=O)ccc1C(C)(C)C [Compound 465, [5-[(4-oxo-1H-quinolin-3-yl)carbonylamino]-2-tert-butyl-phenyl]methylaminoformic acid tert-butyl ester] | < 10 | ++ (between 25% to 100%)
5 | CCc1cccc(C(C)CC)c1NC(=O)c1c[nH]c2ccccc2c1=O (stereo not drawn) [Compound 322, N-(2-ethyl-6-sec-butyl-phenyl)-4-oxo-1H-quinoline-3-carboxamide] | < 10 | ++ (between 25% to 100%)
6 | O=C(Nc1ccc2[nH]ccc2c1)c1c[nH]c2ccccc2c1=O [Compound 294, N-(1H-indol-5-yl)-4-oxo-1H-quinoline-3-carboxamide] | 10 to 25 | ++ (between 25% to 100%)
7 | CC(C)N1CCN(c2ccc(NC(=O)c3c[nH]c4ccccc4c3=O)c(C(F)(F)F)c2)CC1 [Compound 639, N-[4-(4-isopropylpiperazin-1-yl)-2-(trifluoromethyl)phenyl]-4-oxo-1H-quinoline-3-carboxamide] | < 10 | ++ (between 25% to 100%)
8 | CC(C)(C)c1cc(F)c(NC(=O)c2c[nH]c3ccccc3c2=O)cc1O [Compound 143, N-(2-fluoro-5-hydroxy-4-tert-butyl-phenyl)-4-oxo-1H-quinoline-3-carboxamide] | < 10 | ++ (between 25% to 100%)
9 | COc1ccc(-c2ccccc2NC(=O)c2c[nH]c3ccccc3c2=O)c(OC)c1 [Compound 312, N-[2-(2,4-dimethoxyphenyl)phenyl]-4-oxo-1H-quinoline-3-carboxamide] | < 10 | ++ (between 25% to 100%)
10 | CCN(CC)c1ccc(NC(=O)c2c[nH]c3ccccc3c2=O)c(C)c1 [Compound 82, N-(4-diethylamino-2-methyl-phenyl)-4-oxo-1H-quinoline-3-carboxamide] | < 10 | ++ (between 25% to 100%)
11 | Cc1cccc2[nH]cc(C(=O)Nc3ccc(N4CC(F)(F)C[C@H]4C)cc3C(F)(F)F)c(=O)c12 [Compound 667, (R)-N-(4-(4,4-difluoro-2-methylpyrrolidin-1-yl)-2-(trifluoromethyl)phenyl)-5-methyl-4-oxo-1,4-dihydroquinoline-3-carboxamide] | < 10 | ++ (between 25% to 100%)
12 | Cc1cccc2[nH]cc(C(=O)Nc3ccc(N4CCC[C@H]4C)cc3C(F)(F)F)c(=O)c12 [Compound 697, (R)-5-methyl-N-(4-(2-methylpyrrolidin-1-yl)-2-(trifluoromethyl)phenyl)-4-oxo-1,4-dihydroquinoline-3-carboxamide] | < 10 | ++ (between 25% to 100%)
13 | CC(C)(CNC(=O)OCC1CCOC1)c1ccc(NC(=O)c2c[nH]c3ccccc3c2=O)cc1 (stereo not drawn) [Compound 396, [2-methyl-2-[4-[(4-oxo-1H-quinolin-3-yl)carbonylamino]phenyl]-propyl]aminoformic acid tetrahydrofuran-3-ylmethyl ester] | 10 to 25 | ++ (between 25% to 100%)
14 | COc1ccc(NC(=O)c2c[nH]c3ccccc3c2=O)cc1 [Compound 439, N-(4-methoxyphenyl)-4-oxo-1H-quinoline-3-carboxamide] | < 10 | ++ (between 25% to 100%)
15 | C[C@H]1CCCN1c1ccc(NC(=O)c2c[nH]c3ccccc3c2=O)c(C(F)(F)F)c1 [Compound 618, (S)-N-(4-(2-methylpyrrolidin-1-yl)-2-(trifluoromethyl)phenyl)-4-oxo-1,4-dihydroquinoline-3-carboxamide] | < 10 | ++ (between 25% to 100%)
16 | O=C(Nc1ccccc1-c1ccncc1)c1c[nH]c2ccccc2c1=O [Compound 70, 4-oxo-N-[2-(4-pyridyl)phenyl]-1H-quinoline-3-carboxamide] |  | ++ (between 25% to 100%)

Row | SMILES | EC50 [µM] | % Activity
17 | N#Cc1ccc(-c2ccccc2NC(=O)c2c[nH]c3ccccc3c2=O)s1 [Compound 93, N-[2-(5-cyano-2-thienyl)phenyl]-4-oxo-1H-quinoline-3-carboxamide] | < 10 | ++ (between 25% to 100%)
18 | O=C(Nc1ccccc1-c1ccc(F)cc1F)c1c[nH]c2ccccc2c1=O [Compound 63, N-[2-(2,4-difluorophenyl)phenyl]-4-oxo-1H-quinoline-3-carboxamide] | < 10 | ++ (between 25% to 100%)
19 | CCc1ccc(NC(=O)c2c[nH]c3ccccc3c2=O)cc1 [Compound 463, N-(4-ethylphenyl)-4-oxo-1H-quinoline-3-carboxamide] |  | ++ (between 25% to 100%)
20 | COCCOC(=O)NCC(C)(C)c1ccc(NC(=O)c2c[nH]c3ccccc3c2=O)cc1 [Compound 28, [2-methyl-2-[4-[(4-oxo-1H-quinolin-3-yl)carbonylamino]phenyl]-propyl]aminoformic acid 2-methoxyethyl ester] | 10 to 25 | ++ (between 25% to 100%)
21 | CC(C)(C)c1cc(C(C)(C)C)c(NC(=O)c2c[nH]c3ccc(S(=O)(=O)N4CCCC4)cc3c2=O)cc1O [Compound 255, N-(5-hydroxy-2,4-ditert-butyl-phenyl)-4-oxo-6-pyrrolidin-1-ylsulfonyl-1H-quinoline-3-carboxamide] | < 10 | ++ (between 25% to 100%)
22 | CC1(c2ccc(NC(=O)c3c[nH]c4cccc(O)c4c3=O)cc2O)CCCCC1 [Compound 606, 5-hydroxy-N-[3-hydroxy-4-(1-methylcyclohexyl)-phenyl]-4-oxo-1H-quinoline-3-carboxamide] | < 10 | + (<25%)
23 | CC(C)c1c[nH]c2cc(NC(=O)c3c[nH]c4ccccc4c3=O)ccc12 [Compound 357, N-(3-isopropyl-1H-indol-6-yl)-4-oxo-1H-quinoline-3-carboxamide] | < 10 | ++ (between 25% to 100%)
24 | CC(C)(C)c1ccccc1Oc1ccccc1NC(=O)c1c[nH]c2ccccc2c1=O [Compound 178, 4-oxo-N-[2-(2-tert-butylphenoxy)phenyl]-1H-quinoline-3-carboxamide] | < 10 | ++ (between 25% to 100%)
25 | O=C(Nc1ccc(N2CCOCC2)cc1)c1c[nH]c2ccccc2c1=O [Compound 457, N-(4-morpholinophenyl)-4-oxo-1H-quinoline-3-carboxamide] | 25 to 60 | + (<25%)
26 | CC(C)(C)c1cc2ccc(NC(=O)c3c[nH]c4ccccc4c3=O)cc2[nH]1 [Compound 320, 4-oxo-N-(2-tert-butyl-1H-indol-6-yl)-1H-quinoline-3-carboxamide] | < 10 | ++ (between 25% to 100%)
27 | Cc1cccc2[nH]cc(C(=O)Nc3ccc(N4CCC(C)C4)cc3C(F)(F)F)c(=O)c12 (stereo not drawn) [Compound 546, 5-methyl-N-[4-(3-methylpyrrolidin-1-yl)-2-(trifluoromethyl)phenyl]-4-oxo-1H-quinoline-3-carboxamide] | < 10 | ++ (between 25% to 100%)
28 | CC(C)(C)c1ccc(NC(=O)c2c[nH]c3ccccc3c2=O)cc1CO [Compound 6, N-[3-(hydroxymethyl)-4-tert-butyl-phenyl]-4-oxo-1H-quinoline-3-carboxamide] | < 10 | +++ (>100%)
29 | O=C(Nc1ccc2c(c1)C(O)CCC2)c1c[nH]c2ccccc2c1=O (stereo not drawn) [Compound 200, 1,4-dihydro-N-(1,2,3,4-tetrahydro-1-hydroxynaphthalen-7-yl)-4-oxoquinoline-3-carboxamide] | 10 to 25 | ++ (between 25% to 100%)
30 | Cc1cccc2[nH]cc(C(=O)Nc3ccc(N4CC[C@@H](C)C4)cc3C(F)(F)F)c(=O)c12 [Compound 613, (R)-5-methyl-N-(4-(3-methylpyrrolidin-1-yl)-2-(trifluoromethyl)phenyl)-4-oxo-1,4-dihydroquinoline-3-carboxamide] | < 10 | ++ (between 25% to 100%)
31 | COC(=O)[C@@H]1[C@@H](C)CCN1c1ccc(NC(=O)c2c[nH]c3ccccc3c2=O)c(C(F)(F)F)c1 [Compound 530, (2S,3S)-methyl 3-methyl-1-(4-(4-oxo-1,4-dihydroquinoline-3-carboxamido)-3-(trifluoromethyl)phenyl)pyrrolidine-2-carboxylate] | < 10 | ++ (between 25% to 100%)
